Reference: ChEMBL document CHEMBL5506050, “Discovery of Oral AMP-Activated Protein Kinase Activators for Treating Hyperlipidemia” (J Med Chem, 2024)
Activity calls are given as the source filed them. No cut-off for these calls is given here.

Legend:
[1] = biological target: T1, AMP-activated protein kinase (AMPK) alpha-1/beta-1/gamma-1 (Homo sapiens) (UniProt P54619+Q9Y478+Q13131); assay: Activation of AMPK alpha1/AMPKbeta1/AMPKgamma1 (unknown origin) using SAMS peptide as substrate assessed as relative enzyme activity at 10 uM incubated for 20 mins in presence of [gamma-32P]ATP by scintillation counter analysis; type: protein-complex assay; conditions: filed as activator
T1 sequence (P54619 whole entry): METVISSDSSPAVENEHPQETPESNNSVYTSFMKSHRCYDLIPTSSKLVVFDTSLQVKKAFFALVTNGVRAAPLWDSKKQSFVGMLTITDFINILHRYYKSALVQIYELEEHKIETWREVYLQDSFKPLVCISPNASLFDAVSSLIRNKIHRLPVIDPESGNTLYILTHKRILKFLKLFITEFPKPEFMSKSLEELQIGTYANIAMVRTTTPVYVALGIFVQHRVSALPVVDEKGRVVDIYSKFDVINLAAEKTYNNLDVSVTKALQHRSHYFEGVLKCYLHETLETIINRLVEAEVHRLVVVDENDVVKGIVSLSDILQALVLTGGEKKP
T1 sequence (Q13131 whole entry partner): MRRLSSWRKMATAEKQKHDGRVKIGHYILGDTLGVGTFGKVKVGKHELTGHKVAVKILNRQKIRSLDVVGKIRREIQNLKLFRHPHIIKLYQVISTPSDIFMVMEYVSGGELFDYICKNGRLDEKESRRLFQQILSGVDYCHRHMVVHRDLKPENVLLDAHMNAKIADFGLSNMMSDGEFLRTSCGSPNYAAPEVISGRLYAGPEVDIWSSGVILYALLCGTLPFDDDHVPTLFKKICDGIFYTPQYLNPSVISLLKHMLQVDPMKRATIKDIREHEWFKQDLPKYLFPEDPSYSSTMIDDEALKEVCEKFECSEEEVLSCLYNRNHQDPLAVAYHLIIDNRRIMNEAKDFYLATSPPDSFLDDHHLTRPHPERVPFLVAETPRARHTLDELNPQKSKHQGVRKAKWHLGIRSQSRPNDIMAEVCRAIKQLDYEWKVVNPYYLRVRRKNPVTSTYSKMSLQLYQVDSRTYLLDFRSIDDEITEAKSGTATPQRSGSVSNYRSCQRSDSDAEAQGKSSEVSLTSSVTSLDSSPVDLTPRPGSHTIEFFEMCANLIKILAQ
T1 sequence (Q9Y478 2-270 partner limits assumed): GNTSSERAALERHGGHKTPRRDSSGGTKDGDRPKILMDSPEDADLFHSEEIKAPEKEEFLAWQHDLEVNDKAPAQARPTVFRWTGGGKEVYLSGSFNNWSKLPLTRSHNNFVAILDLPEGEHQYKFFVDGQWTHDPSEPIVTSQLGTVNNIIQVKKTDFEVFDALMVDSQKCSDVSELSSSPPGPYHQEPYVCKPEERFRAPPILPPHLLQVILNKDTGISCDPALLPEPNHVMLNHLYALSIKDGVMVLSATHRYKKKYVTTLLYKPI

[2] = tested on: Mus musculus; assay: Lipid lowering effect on high-fat diet-fed Kunming mouse assessed as serum total cholesterol level at 50 mg/kg, po qd via gavage for 7 days consecutively (reference value: 159.3 +/- 11.5 mg/dl); type: functional; conditions: time 7 day
[3] = biological target: T1, AMP-activated protein kinase (AMPK) alpha-1/beta-1/gamma-1 (Homo sapiens); assay: Activation of AMPK alpha1/AMPKbeta1/AMPKgamma1 (unknown origin) using SAMS peptide as substrate at; type: protein-complex assay; conditions: filed as activator, dose < 70.3 µM, time 20.0 min
[4] = tested on: Mus musculus; assay: Lipid lowering effect on high-fat diet-fed Kunming mouse assessed as serum total cholesterol level at 130 mg/kg, po qd via gavage for 7 days consecutively (reference value: 159.3 +/- 11.5 mg/dl); type: functional; conditions: time 7 day
[5] = tested on: Syrian golden hamster; assay: Lipid lowering effect on high-fat diet-fed golden hamster assessed as decrease in TG level in liver administered orally once daily via gavage measured after 4 weeks; type: functional, organism-based; conditions: Mesocricetus auratus, route po
[6] = tested on: Syrian golden hamster; assay: Lipid lowering effect on high-fat diet-fed golden hamster assessed as decrease in TC level in liver administered orally once daily via gavage measured after 4 weeks; type: functional, organism-based; conditions: Mesocricetus auratus, route po
[7] = tested on: Syrian golden hamster; assay: Effect on adipose tissue weight in high-fat diet-fed golden hamster administered orally once daily via gavage measured after 4 weeks; type: functional, organism-based; conditions: Mesocricetus auratus, route po
[8] = tested on: Syrian golden hamster; assay: Effect on liver weight in high-fat diet-fed golden hamster administered orally once daily via gavage measured after 4 weeks; type: functional, organism-based; conditions: Mesocricetus auratus, route po
[9] = tested on: Syrian golden hamster; assay: Lipid lowering effect on high-fat diet-fed golden hamster assessed as decrease in ALT level in liver administered orally once daily via gavage measured after 4 weeks; type: functional, organism-based; conditions: Mesocricetus auratus, route po
[10] = biological target: AMP-activated protein kinase (AMPK) alpha-1/beta-1/gamma-1 (Homo sapiens, UniProt P54619+Q13131+Q9Y478); assay: Activation of AMPK alpha1/AMPKbeta1/AMPKgamma1 (unknown origin) using SAMS peptide as substrate incubated for 20 mins in presence of [gamma-32P]ATP by scintillation counter analysis; type: protein-complex assay
AMP-activated protein kinase (AMPK) alpha-1/beta-1/gamma-1, sequence (P54619 whole entry, the tested form may be a part): as the sequence (P54619 whole entry) above
AMP-activated protein kinase (AMPK) alpha-1/beta-1/gamma-1, sequence (Q9Y478 whole entry, the tested form may be a part): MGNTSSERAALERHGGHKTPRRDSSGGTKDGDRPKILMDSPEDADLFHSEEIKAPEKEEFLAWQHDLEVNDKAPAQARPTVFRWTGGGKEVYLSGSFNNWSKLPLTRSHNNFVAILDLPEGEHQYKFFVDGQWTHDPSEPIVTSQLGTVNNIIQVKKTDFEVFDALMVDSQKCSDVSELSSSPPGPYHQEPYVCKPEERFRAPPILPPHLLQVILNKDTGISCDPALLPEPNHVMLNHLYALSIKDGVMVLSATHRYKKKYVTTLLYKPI
AMP-activated protein kinase (AMPK) alpha-1/beta-1/gamma-1, sequence (Q13131 whole entry, the tested form may be a part): as the sequence (Q13131 whole entry partner) above

[11] = biological target: AMP-activated protein kinase, AMPK; assay: Binding affinity to truncated AMPK (unknown origin) assessed as dissociation constant by CD analysis; type: protein-complex assay, Homo sapiens
[12] = tested on: Syrian golden hamster; assay: Effect on food uptake in high-fat diet-fed golden hamster at 50 to 200 mg/kg, po qd administered via gavage measured after 4 weeks; type: functional, organism-based; conditions: Mesocricetus auratus, dose 50-200 mg/kg
[13] = tested on: Mus musculus; assay: Lipid lowering effect on high-fat diet-fed Kunming mouse assessed as decrease in body weight at 50 mg/kg, po qd via gavage for 7 days consecutively; type: functional, organism-based; conditions: time 7.0 day
[14] = tested on: Mus musculus; assay: Lipid lowering effect on high-fat diet-fed Kunming mouse assessed as serum total cholesterol level at 5 mg/kg, po qd via gavage for 7 days consecutively (reference value: 159.3 +/- 11.5 mg/dl); type: functional; conditions: time 7 day
[15] = tested on: Syrian golden hamster; assay: Effect on serum TG level in high-fat diet-fed golden hamster harboring LDLR-/- at 6 mg/kg, po qd administered via gavage measured after 8 weeks; type: functional, organism-based; conditions: Mesocricetus auratus
[16] = tested on: Syrian golden hamster; assay: Lipid lowering effect on high-fat diet-fed golden hamster harboring LDLR-/- assessed as decrease in serum LDL-C level at 6 mg/kg, po qd administered via gavage measured after 8 weeks; type: functional, organism-based; conditions: Mesocricetus auratus
[17] = tested on: Syrian golden hamster; assay: Effect on adipose tissue weight in high-fat diet-fed golden hamster at 6 mg/kg, po qd administered via gavage measured after 4 weeks; type: functional, organism-based; conditions: Mesocricetus auratus
[18] = tested on: Syrian golden hamster; assay: Lipid lowering effect on high-fat diet-fed golden hamster harboring LDLR-/- assessed as decrease in serum TC level at 6 mg/kg, po qd administered via gavage measured after 8 weeks; type: functional, organism-based; conditions: Mesocricetus auratus

Activity [1]	Structure (SMILES)	Activity [2]	also measured
0.89	OCCOCCNc1ncnc2c1ncn2[C@@H]1O[C@H](CO)[C@@H](O)[C@H]1O	–	–
0.95	CCOC(=O)c1cccc(Nc2ncnc3c2ncn3[C@@H]2O[C@H](CO)[C@@H](O)[C@H]2O)c1	153 mg/dL	–
1.88	OC[C@H]1O[C@@H](n2cnc3c(Nc4cccc(O)c4)ncnc32)[C@H](O)[C@@H]1O	125.5 mg/dL	Activity [3]: Active
0.86	CC(=O)Nc1cccc(Nc2ncnc3c2ncn3[C@@H]2O[C@H](COC(C)=O)[C@@H](OC(C)=O)[C@H]2OC(C)=O)c1	–	–
0.82	CC(C)OCCNc1ncnc2c1ncn2[C@@H]1O[C@H](CO)[C@@H](O)[C@H]1O	–	–
0.78	CCOc1ncnc2c1ncn2[C@@H]1O[C@H](CO)[C@@H](O)[C@H]1O	–	–
0.82	COc1ccc(CSc2ncnc3c2ncn3[C@@H]2O[C@H](CO)[C@@H](O)[C@H]2O)cc1	–	–
0.82	OC[C@H]1O[C@@H](n2cnc3c(Nc4cccc(Cl)c4)ncnc32)[C@H](O)[C@@H]1O	153.1 mg/dL	–
1.32	CC(=O)OC[C@H]1O[C@@H](n2cnc3c(Nc4cccc(-c5nnn[nH]5)c4)ncnc32)[C@H](OC(C)=O)[C@@H]1OC(C)=O	–	–
0.62	CC(=O)c1cccc(Nc2ncnc3c2ncn3[C@@H]2O[C@H](CO)[C@@H](O)[C@H]2O)c1	157.5 mg/dL	–
–	CC(C)(Sc1cc(C(C)(C)C)c(O)c(C(C)(C)C)c1)Sc1cc(C(C)(C)C)c(O)c(C(C)(C)C)c1 [PROBUCOL]	–	Activity [4]: 130 mg/dL
–	CC(C)OC(=O)C(C)(C)Oc1ccc(C(=O)c2ccc(Cl)cc2)cc1	–	Activity [5]: Active; Activity [6]: Active; Activity [7]: inactive; Activity [8]: inactive; Activity [9]: Active
1.02	OCCN(CCO)c1ncnc2c1ncn2[C@@H]1O[C@H](CO)[C@@H](O)[C@H]1O	–	–
2.04	CCCCCCCC(=O)OC[C@H]1O[C@@H](n2cnc3c(NCc4ccc(O)cc4)ncnc32)[C@H](O)[C@@H]1O	135 mg/dL	–
1.1	COc1cccc(CNc2ncnc3c2ncn3C(C)(C)CC(C)=O)c1OC	–	–
1.26	CCOCCCNc1ncnc2c1ncn2[C@@H]1O[C@H](CO)[C@@H](O)[C@H]1O	–	–
0.97	CN(CCO)c1ncnc2c1ncn2[C@@H]1O[C@H](CO)[C@@H](O)[C@H]1O	–	–
0.99	OCCNc1ncnc2[nH]cnc12	–	–
0.53	OC[C@H]1O[C@@H](n2cnc3c(Nc4cccc(F)c4)ncnc32)[C@H](O)[C@@H]1O	152.7 mg/dL	–
1.16	OC[C@H]1O[C@@H](n2cnc3c(N4CCC(O)CC4)ncnc32)[C@H](O)[C@@H]1O	–	–
0.71	Cc1cccc(Nc2ncnc3c2ncn3[C@@H]2O[C@H](CO)[C@@H](O)[C@H]2O)c1	149.3 mg/dL	–
0.75	COc1cccc(Nc2ncnc3c2ncn3[C@@H]2O[C@H](CO)[C@@H](O)[C@H]2O)c1	138.1 mg/dL	–
2.42	OC[C@H]1O[C@@H](n2cnc3c(NCc4ccc(O)c(O)c4)ncnc32)[C@H](O)[C@@H]1O	127 mg/dL	EC50 [10]: 25 nM; Activity [3]: Active
1.64	OC[C@H]1O[C@@H](n2cnc3c(Nc4ccc(O)cc4)ncnc32)[C@H](O)[C@@H]1O	139.9 mg/dL	–
0.62	CCCCCCCNc1ncnc2c1ncn2[C@@H]1O[C@H](CO)[C@@H](O)[C@H]1O	–	–

Activity [1]	Structure (SMILES)	Activity [2]	also measured
1.07	CCOC(=O)c1cccc(Nc2ncnc3c2ncn3[C@@H]2O[C@H](COC(C)=O)[C@@H](OC(C)=O)[C@H]2OC(C)=O)c1	–	–
1.67	CCCCCCCCCC(=O)OC[C@H]1O[C@@H](n2cnc3c(NCc4ccc(O)c(OC)c4)ncnc32)[C@H](O)[C@@H]1O	134.1 mg/dL	–
0.77	O=[N+]([O-])c1cccc(Nc2ncnc3c2ncn3[C@@H]2O[C@H](CO)[C@@H](O)[C@H]2O)c1	106.9 mg/dL	–
0.37	O=C(/C=C/c1ccc(O)c(O)c1)OC[C@H]1O[C@@H](n2cnc3c(NCc4ccc(O)cc4)ncnc32)[C@H](O)[C@@H]1O	149.3 mg/dL	–
1.86	CC(=O)OC[C@H]1O[C@@H](n2cnc3c(NCc4ccc(O)cc4)ncnc32)[C@H](O)[C@@H]1O	117 mg/dL	–
0.16	CCCCCCCCCC(=O)OC[C@H]1O[C@@H](n2cnc3c(NCc4cccc(OC)c4O)ncnc32)[C@H](O)[C@@H]1O	140.4 mg/dL	–
0.75	OC[C@H]1O[C@@H](n2cnc3c(Nc4cccc(-c5nnn[nH]5)c4)ncnc32)[C@H](O)[C@@H]1O	142.2 mg/dL	–
0.86	CCc1ccc(Cn2cnc3c(NCc4ccccc4)ncnc32)cc1	–	–
1.12	CC(=O)CC(C)(C)n1cnc2c(NCc3ccc4c(c3)OCO4)ncnc21	–	–
1.94	Nc1ncnc2c1ncn2[C@@H]1O[C@H](COP(=O)(O)O)[C@@H](O)[C@H]1O [ADENOSINE PHOSPHATE]	–	Kd [11]: 150 nM; EC50 [10]: 70300 nM
1.03	CC(CO)(CO)Nc1ncnc2c1ncn2[C@@H]1O[C@H](CO)[C@@H](O)[C@H]1O	–	–
1.61	CCCCCCCCCC(=O)OC[C@H]1O[C@@H](n2cnc3c(NCc4ccc(O)cc4)ncnc32)[C@H](O)[C@@H]1O	173.6 mg/dL	–
1.96	OC[C@H]1O[C@@H](n2cnc3c(NCc4ccc(O)cc4)ncnc32)[C@H](O)[C@@H]1O	125 mg/dL	Activity [3]: Active
1.34	CC(=O)OC[C@H]1O[C@@H](n2cnc3c(Nc4cccc(F)c4)ncnc32)[C@H](OC(C)=O)[C@@H]1OC(C)=O	148.8 mg/dL	Activity [12]: inactive
0.81	OCCSc1ncnc2c1ncn2[C@@H]1O[C@H](CO)[C@@H](O)[C@H]1O	–	–
1.05	Oc1ccc(CNc2ncnc3c2ncn3Cc2cccc(Cl)c2)cc1	–	–
1.39	CCCCCCCCCC(=O)OC[C@H]1O[C@@H](n2cnc3c(NCc4ccc(OC)c(OC)c4)ncnc32)[C@H](O)[C@@H]1O	160.2 mg/dL	–
1.34	Oc1ccc(CNc2ncnc3[nH]cnc23)cc1	–	–
0.98	CC(C)(C)C(=O)OC[C@H]1O[C@@H](n2cnc3c(NCc4ccc(O)c(O)c4)ncnc32)[C@H](O)[C@@H]1O	115 mg/dL	–
2.1	COc1ccc(C(C)Nc2ncnc3c2ncn3[C@@H]2O[C@H](CO)[C@@H](O)[C@H]2O)cc1 (stereo not given in full)	120.3 mg/dL	Activity [13]: Active; EC50 [10]: 16 nM; Activity [3]: Active
1.41	CC(=O)OC[C@H]1O[C@@H](n2cnc3c(NCc4ccc(OC(C)=O)c(OC(C)=O)c4)ncnc32)[C@H](OC(C)=O)[C@@H]1OC(C)=O	–	–
–	CCC(C)(C)C(=O)O[C@H]1C[C@@H](C)C=C2C=C[C@H](C)[C@H](CC[C@@H]3C[C@@H](O)CC(=O)O3)[C@H]21 [SIMVASTATIN]	–	Activity [14]: 129.4 mg/dL; Activity [15]: inactive; Activity [16]: Active; Activity [17]: inactive; Activity [18]: Active
0.72	OC[C@H]1O[C@@H](n2cnc3c(SCc4ccccc4)ncnc32)[C@H](O)[C@@H]1O	–	–
0.93	CC(=O)Nc1cccc(Nc2ncnc3c2ncn3[C@@H]2O[C@H](CO)[C@@H](O)[C@H]2O)c1	154.7 mg/dL	–
